# Results published in patent publication US10660789B2, “1,4-dihydropyridine derivatives with HSP modulating activity” (Richter Gedeon NYRT., priority 2011, dated 2020).
# Where a name gives a salt, the structure may show the parent alone.
# How the values were obtained:
# other Hsps = experiment: Other in vitro HSP modulating effects (Table 3); assay type: cell-based, mouse and human; design: key: +: co-inducing activity; −: silencing activity; 0: with the experimental methods applied no other HSP modulating effects could be identified
# Procedure: (§1) The Hsp co-inducing effect of the compounds on stress response was tested on B16 mouse melanoma and SHSY5Y human neuroblastoma cell lines stably transfected with Hsp promoter probing plasmids. This kind of promoter probing, using the promoter region of a given gene conjugated with fluorescent protein is used as a best and fastest test system for finding drugs which modulate the activity of the gene followed by the given promoter (Wyshocka et al., Mol. Cel. Biochem. 215:153-156, 2000).
# (§2) Reporter plasmids, containing the Hsp70 and/or Hsp25 promoter conjugated to either YFP or GFP (yellow or green fluorescent protein), were stably transfected into the cells and the expression of YFP or GFP was followed by flow cytometry. Cells were either kept at 37° C. or exposed to heat shock at 42° C. for 1 hour followed by a 16 hour recovery period at 37° C. in the presence or absence of different concentrations of the test compound. After recovery the expression of YFP or GFP which is in straight correlation with the promoter activity of Hsp70 or Hsp27 genes was followed by measuring the fluorescence intensity of the cells by flow cytometry. Fluorescence intensity is in straight correlation with the amount of fluorescent protein (GFP or YFP) produced under the control of hsp promoter. The mean fluorescence intensity of YFP or GFP produced is shown as “Hsp promoter activity”.
# (§3) Cells were homogenously distributed on 6-well plates in 1×10^5 cells/well density. B16-pHsp25-GFP and B16-pHsp70-YFP melanoma cells were grown in RPMI-1640 medium supplemented with 10% Fetal bovine serum (FBS), penicillin (200 units/ml), streptomycin (200 μg/ml) and 2 mM L-Glutamine. For maintaining the SH-SY5Y-pHsp25-GFP and SH-SY5YpHsp70-YFP neuroblastoma cell lines Dulbecco's modified Eagle's medium (DMEM-F-12) containing 10% FBS, 2 mM L-Glutamine, penicillin (200 units/ml), streptomycin (200 μg/ml) and MEM non-essential amino acids were used. Before the treatments both cell lines were incubated at 37° C. in a saturated humidity atmosphere containing 95% air and 5% CO2. After 24 h incubation cells were pretreated with compounds of the invention in four different concentrations (usually in 3; 10; 20 and 50 μM) 30 min before the heat shock at 42° C. for 1 h and then incubated further at 37° C. for 16 h (recovery period). After this procedure cells were trypsinized and suspensed in 500 μl serum-free DMEM-F12 medium. The changes in cells' fluorescence were detected using BD FACSCalibur flow cytometer.
# SY-SY5Y and B16 cells were extracted in NP-40 lysis buffer (PBS pH 7.4, 1% protease inhibitor coctail and 1% Triton X-100). The cell extracts were then constantly agitated at 4° C. for 2 h. The cell extracts were centrifuged at 12000×g for 30 min and supernatants were saved. After the protein concentration measurement 15 μg of total protein was separated by sodium dodecyl sulfate-polyacrylamide gel electrophoresis (SDS-PAGE) under reducing conditions according to the method of Laemmli. Proteins were blotted onto PVDF membrane. The blot was incubated overnight at 4° C. in the presence of mouse α-Hsp25, α-Hsp70, α-Hsp60 és α-Hsp90 monoclonal antibodies diluted in PBS. Then, the membrane was washed three times in PBS-0.05% Tween and incubated for 1 h in peroxidase-conjugated anti-mouse IgG antibody diluted 1:50000 in PBS containing 3% non-fat dry milk. The immune complexes were detected with chemo-luminescent substrate of peroxidase according to the supplier's instructions. Images taken from the membranes were analyzed using AlphaEase FC software.
# Hsp70 promoter = experiment: Hsp promoter probing, Hsp70 promoter-YFP reporter, flow cytometry (Table 3); assay type: cell-based, mouse and human; design: key: +: co-inducing activity; −: silencing activity; 0: with the experimental methods applied no other HSP modulating effects could be identified; settings: heat shock 42° C. 1 h, 16 h recovery; B16 or SHSY5Y reporter cells, cell line per value not stated
# Procedure: as §1
# The Hsp encoding genes are transactivated through the binding of HSF to the heat shock element found on the DNA upstream of the Hsp genes, in the so called promoter region. In the absence of heat stress, the heat shock factors are present as monomers. Upon heat stress, however, the heat shock factors form trimers, which are the active components, able to bind to heat shock elements. Once HSF is bound to the heat shock element in the promoter of Hsp genes, the gene following the promoter region is transcriptionally active.
# as §2, §3
SMILES,melting point [°C],Other in vitro effects (other Hsps),Hsp70 modulation (Hsp70 promoter)
"COC(=O)C1=C(C)N(C)C(C)=C(C(=O)OC)C1c1ccc(F)cc1 [Example 2, Dimethyl 1,2,6-trimethyl-4-(4-fluorophenyl)-1,4-dihydropyridine-3,5-dicarboxylate]",184 to 185,0,+
"COC(=O)C1=C(C)N(C)C(C)=C(C(=O)OC)C1c1ccccc1 [Example 3, Dimethyl 1,2,6-trimethyl-4-phenyl-1,4-dihydropyridine-3,5-dicarboxylate]",201 to 203,0,+
"COC(=O)C1=C(C)N(C)C(C)=C(C(=O)OC)C1c1cccc(C(F)(F)F)c1 [Example 7, Dimethyl 1,2,6-trimethyl-4-(3-trifluoromethylphenyl)-1,4-dihydropyridine-3,5-dicarboxylate]",118 to 119,0,+
"COC(=O)C1=C(C)N(C)C(C)=C(C(=O)OC)C1c1ccccc1C(F)(F)F [Example 8, Dimethyl 1,2,6-trimethyl-4-(2-trifluoromethylphenyl)-1,4-dihydropyridine-3,5-dicarboxylate]",168 to 170,0,+
"COC(=O)C1=C(C)N(C)C(C)=C(C(=O)OC)C1c1ccc(-n2ccnc2)cc1 [Example 10, Dimethyl 1,2,6-trimethyl-4-(4-(1-imidazoly)lphenyl)-1,4-dihydropyridine-3,5-dicarboxylate]",201 to 202,0,+
"COC(=O)C1=C(C)N(C)C(C)=C(C(=O)OC)C1c1cccnc1 [Example 12, Dimethyl 1,2,6-trimethyl-4-(3-piridyl)-1,4-dihydropyridine-3,5-dicarboxylate]",173 to 175,0,−
"COC(=O)C1=C(C)N(C)C(C)=C(C(=O)OC)C1c1cc(F)cc(F)c1 [Example 24, Dimethyl 4-(3,5-difluorophenyl)-1,2,6-trimethyl-1,4-dihydropyridine-3,5-dicarboxylate]",167 to 168,0,+
"COC(=O)C1=C(CCN(C)C)N(C)C(CCN(C)C)=C(C(=O)OC)C1c1cc(F)cc(F)c1 [Example 25, Dimethyl 4-(3,5-Difluorophenyl)-2,6-bis-(2-dimethylaminoethyl)-1-methyl-1,4-dihydropyridine-3,5-dicarboxylate dihydrochloride]",,0,+
"COC(=O)C1=C(C)N(C)C(CCN(C)C)=C(C(=O)OC)C1c1cc(F)cc(F)c1.Cl (centres unmarked) [Example 26, Dimethyl 4-(3,5-difluorophenyl)-2-(2-dimethylamino-ethyl)-1,6-dimethyl-1,4-dihydropyridine-3,5-dicarboxylate hydrochloride]",201 to 203,0,+
"COC(=O)C1=C(CCN(C)C)N(C)C(CCN2CCCCC2)=C(C(=O)OC)C1c1ccc(C(F)(F)F)cc1 (centres unmarked) [Example 30, Dimethyl 2-(2-dimethylamino-ethyl)-1-methyl-6-(2-piperidin-1-yl-ethyl)-4-(4-trifluoromethylphenyl)-1,4-dihydropyridine-3,5-dicarboxylate dihydrochloride]",,0,+
"CCOC(=O)C1=CN(Cc2ccccc2)C=C(C(=O)OCC)C1c1ccccc1 [Example 38, Diethyl 1-benzyl-4-phenyl-1,4-dihydropyridine-3,5-dicarboxylate, reference compound]",,0,+
"COC(=O)C1=C(CCN(C)C)N(C)C(CCN2CCc3cc(OC)c(OC)cc3C2)=C(C(=O)OC)C1c1ccc(C(F)(F)F)cc1 (centres unmarked) [Example 42, Dimethyl 2-[2-(6,7-dimethoxy-1,2,3,4-tetrahydroisoquinolin-2-yl)-ethyl]-6-(2-dimethylamino-ethyl)-1-methyl-4-(4-trifluoromethylphenyl)-1,4-dihydropyridine-3,5-dicarboxylate dihydrochloride]",,0,+

# Now from value to compound, other results behind:
melting point [°C],SMILES,Other in vitro effects (other Hsps),Hsp70 modulation (Hsp70 promoter)
146 to 149,CCOC(=O)C1=C(C)N(C)C(C)=C(C(=O)OC)C1c1ccc(C(F)(F)F)cc1 (centres unmarked) [Example 32],0,+
123 to 124,"CCOC(=O)C1=CN(C2CC2)C=C(C(=O)OCC)C1c1ccc(C(F)(F)F)cc1 [Example 33, Diethyl 1-cyclopropyl-4-(4-trifluoromethylphenyl)-1,4-dihydro-pyridine-3,5-dicarboxylate]",0,+
107 to 108,CCOC(=O)C1=CN(Cc2ccccc2)C=C(C(=O)OCC)C1c1ccc(C(F)(F)F)cc1 [Example 34],0,+
94 to 96,"CCOC(=O)C1=CN(C)C=C(C(=O)OCC)C1c1ccc(C(F)(F)F)cc1 [Example 37, Diethyl 1-methyl-4-(4-trifluoromethylphenyl)-1,4-dihydropyridine-3,5-dicarboxylate]",0,+
204 to 206,"O=C(O)C1=CN(Cc2ccccc2)C=C(C(=O)O)C1c1ccccc1 [Example 39, 1-Benzyl-4-phenyl-1,4-dihydropyridine-3,5-dicarboxylic acid]",0,−
186 to 188,"COC(=O)C1=C(C)N(C)C(CCN2CCc3ccccc3C2)=C(C(=O)OC)C1c1ccc(C(F)(F)F)cc1.O=C(O)/C=C/C(=O)O (centres unmarked) [Example 40, Dimethyl 2-[2-(1,2,3,4-tetrahidroisoquinolin-2-yl)-ethyl]-1,6-dimethyl-4-(4-trifluoromethyl-phenyl)-1,4-dihydropyridine-3,5-dicarboxylate fumarate]",0,+
176 to 181,"COC(=O)C1=C(C)N(C)C(CCN2CCc3cc(OC)c(OC)cc3C2)=C(C(=O)OC)C1c1ccc(C(F)(F)F)cc1.Cl (centres unmarked) [Example 41, Dimethyl 2-[2-(6,7-dimethoxy-1,2,3,4-tetrahydroisoquinolin-2-yl)-ethyl]-1,6-dimethyl-4-(4-trifluoromethylphenyl)-1,4-dihydropyridine-3,5-dicarboxylate hydrochloride]",0,+
142 to 143,"COC(=O)C1=C(C)N(C)C(C)=C(C(=O)OC)C1c1ccco1 [Example 44, Dimethyl 4-(furan-2-yl-1,2,6-trimethyl-1,4-dihydropyridine-3,5-dicarboxylate]",0,+
187 to 189,"COC(=O)C1=C(C)N(C)C(C)=C(C(=O)OC)C1c1ccsc1 [Example 45, Dimethyl 1,2,6-Trimethyl-4-(thiophen-3-yl)-1,4-dihydropyridine-3,5-dicarboxylate]",0,+
